Measurements: patent US20100209345A1, “Fluorinated Ligands for Targeting Peripheral Benzodiazepine Receptors” (Australian Nuclear Science & Technology Organisation, priority 2006, published 2010)

Experiments:
[1] = target: T1, peripheral benzodiazepine binding site (Rattus norvegicus, UniProt P16257); experiment: In vitro binding, [3H]-PK11195, kidney membrane preparation; details: PBR IC50 (nM), [3H]-PK11195 (2 nM), 4° C., 1 h
T1 construct: diluted kidney membrane preparation (200 μg); from tissue; host or cells: kidney membrane preparation
Protocol: Non-specific binding was determined with PK11195 (10 μM).
(§1) Non-specific binding was determined with Flumazenil (20 μM). In both cases, incubations were terminated by rapid filtration through Whatman GF/B glass fibre. Filters were immediately washed 3 times with 5 mL ice-cold 50 mM Tris/HCl at pH 7.4. Filters were counted in a β-scintillation counter (Packard) to measure the amount of bound radioactivity. The IC50 of the compounds for the peripheral benzodiazepine binding site and the central benzodiazepine receptor were calculated using Kell 6 software.

[2] = target: central benzodiazepine receptors; experiment: In vitro binding, [3H]-Flumazenil, brain cortex membrane preparation; details: for IC50: [3H]-Flumazenil (2 nM), 25° C., 45 min, read-out: CBR IC50
Protocol: as §1

SMILES	IC50 [1]	IC50 [2]	chromatographic logP (LogP HPLC)	CBR, % @ 10^−5M ([2]; @ 10^−5M, [3H]-Flumazenil)
CNC(=O)Cc1c(-c2ccc(OCCF)cc2)nc2ccc(Cl)cn12 [PBR106, 2-(2-(4-(2-fluoroethoxy)phenyl)-6-chloroimidazo[1,2-a]pyridin-3-yl)-N-methylacetamide]	170 nM	548 nM	2.05 ± 0.07	–
CCN(C)C(=O)Cc1c(-c2ccc(OCCF)cc2)nc2ccc(Cl)cn12 [PBR107, 2-(2-(4-(2-fluoroethoxy)phenyl)-6-chloroimidazo[1,2-a]pyridin-3-yl)-N-ethyl-N-methylacetamide]	54.8 nM	1390 nM	2.34 ± 0.07	–
CC(C)NC(=O)Cc1c(-c2ccc(OCCF)cc2)nc2ccc(Cl)cn12 [PBR110, 2-(2-(4-(2-fluoroethoxy)phenyl)-6-chloroimidazo[1,2-a]pyridin-3-yl)-N-isopropylacetamide]	14.1 nM	2740 nM	2.74 ± 0.09	–
CCN(CC)C(=O)Cc1c(-c2ccc(OCCCCF)cc2)nc2ccc(Cl)cn12 [PBR 120, 2-(2-(4-(4-fluorobutoxy)phenyl)-6-chloroimidazo[1,2-a]pyridin-3-yl)-N,N-diethylacetamide]	35 nM	942 nM	3.53 ± 0.11	–
CCN(CC)C(=O)Cc1c(-c2ccc(OCCCF)cc2)nc2c(Cl)cc(Cl)cn12 [PBR 130, 2-(2-(4-(3-fluoropropoxy)phenyl)-6,8-dichloroimidazo[1,2-a]pyridin-3-yl)-N,N-diethylacetamide]	20 nM	> 5000 nM	3.43 ± 0.1	50% @ 10^−5M
CCN(CC)C(=O)Cc1c(-c2ccc(C(C)(C)C)cc2)nc2ccc(F)nn12 [PBR 132, 2-(2-(4-tert-butylphenyl)-6-fluoroimidazo[1,2-b]pyridazin-3-yl)-N,N-diethylacetamide]	38 nM	343 nM	3.6 ± 0.11	–
CCN(CC)C(=O)Cc1c(-c2ccc(OCCF)cc2)nc2c(Cl)cc(Cl)cn12 [PBR 136, 2-(2-(4-(2-fluoroethoxy)phenyl)-6,8-dichloroimidazo[1,2-a]pyridin-3-yl)-N,N-diethylacetamide]	17.6 nM	588 nM	2.99 ± 0.09	–
